Key:
CCRF-CEM = experiment: Antiproliferative activity against human CCRF-CEM cells measured after 48 hrs by SRB assay; assay type: functional, cell-based
HL-60(TB) = experiment: Antiproliferative activity against human HL-60(TB) cells measured after 48 hrs by SRB assay; assay type: functional, cell-based
K562 = experiment: Antiproliferative activity against human K562 cells measured after 48 hrs by SRB assay; assay type: functional, cell-based
SR = experiment: Antiproliferative activity against human SR cells measured after 48 hrs by SRB assay; assay type: functional, cell-based
A549 = experiment: Antiproliferative activity against human A549 cells measured after 48 hrs by SRB assay; assay type: functional, cell-based
HOP-62 = experiment: Antiproliferative activity against human HOP-62 cells measured after 48 hrs by SRB assay; assay type: functional, cell-based
NCI-H226 = experiment: Antiproliferative activity against human NCI-H226 cells measured after 48 hrs by SRB assay; assay type: functional, cell-based
NCI-H23 = experiment: Antiproliferative activity against human NCI-H23 cells measured after 48 hrs by SRB assay; assay type: functional, cell-based
NCI-H322M = experiment: Antiproliferative activity against human NCI-H322M cells measured after 48 hrs by SRB assay; assay type: functional, cell-based
NCI-H460 = experiment: Antiproliferative activity against human NCI-H460 cells measured after 48 hrs by SRB assay; assay type: functional, cell-based
NCI-H522 = experiment: Antiproliferative activity against human NCI-H522 cells measured after 48 hrs by SRB assay; assay type: functional, cell-based
HCT-116 = experiment: Antiproliferative activity against human HCT-116 cells measured after 48 hrs by SRB assay; assay type: functional, cell-based
HT-29 = experiment: Antiproliferative activity against human HT-29 cells measured after 48 hrs by SRB assay; assay type: functional, cell-based
KM12 = experiment: Antiproliferative activity against human KM12 cells measured after 48 hrs by SRB assay; assay type: functional, cell-based
SW-620 = experiment: Antiproliferative activity against human SW-620 cells measured after 48 hrs by SRB assay; assay type: functional, cell-based
SF-268 = experiment: Antiproliferative activity against human SF-268 cells measured after 48 hrs by SRB assay; assay type: functional, cell-based
SF-539 = experiment: Antiproliferative activity against human SF-539 cells measured after 48 hrs by SRB assay; assay type: functional, cell-based
SNB-75 = experiment: Antiproliferative activity against human SNB-75 cells measured after 48 hrs by SRB assay; assay type: functional, cell-based
U-251 = experiment: Antiproliferative activity against human U-251 cells measured after 48 hrs by SRB assay; assay type: functional, cell-based
M14 = experiment: Antiproliferative activity against human M14 cells measured after 48 hrs by SRB assay; assay type: functional, cell-based
SK-MEL-2 = experiment: Antiproliferative activity against human SK-MEL-2 cells measured after 48 hrs by SRB assay; assay type: functional, cell-based
SK-MEL-28 = experiment: Antiproliferative activity against human SK-MEL-28 cells measured after 48 hrs by SRB assay; assay type: functional, cell-based
UACC-257 = experiment: Antiproliferative activity against human UACC-257 cells measured after 48 hrs by SRB assay; assay type: functional, cell-based
UACC-62 = experiment: Antiproliferative activity against human UACC-62 cells measured after 48 hrs by SRB assay; assay type: functional, cell-based
IGROV-1 = experiment: Antiproliferative activity against human IGROV-1 cells measured after 48 hrs by SRB assay; assay type: functional, cell-based
OVCAR-4 = experiment: Antiproliferative activity against human OVCAR-4 cells measured after 48 hrs by SRB assay; assay type: functional, cell-based
NCI/ADR-RES = experiment: Antiproliferative activity against human NCI-ADR-RES cells measured after 48 hrs by SRB assay; assay type: functional, cell-based
786-0 = experiment: Antiproliferative activity against human 786-0 cells measured after 48 hrs by SRB assay; assay type: functional, cell-based
CAKI-1 = experiment: Antiproliferative activity against human CAKI-1 cells measured after 48 hrs by SRB assay; assay type: functional, cell-based
RXF 393 = experiment: Antiproliferative activity against human RXF 393 cells measured after 48 hrs by SRB assay; assay type: functional, cell-based
SN12C = experiment: Antiproliferative activity against human SN12C cells measured after 48 hrs by SRB assay; assay type: functional, cell-based
DU-145 = experiment: Antiproliferative activity against human DU-145 cells measured after 48 hrs by SRB assay; assay type: functional, cell-based
MCF7 = experiment: Antiproliferative activity against human MCF7 cells measured after 48 hrs by SRB assay; assay type: functional, cell-based
MDA-MB-231 = experiment: Antiproliferative activity against human MDA-MB-231 cells measured after 48 hrs by SRB assay; assay type: functional, cell-based
BT-549 = experiment: Antiproliferative activity against human BT-549 cells measured after 48 hrs by SRB assay; assay type: functional, cell-based
T47D = experiment: Antiproliferative activity against human T47D cells measured after 48 hrs by SRB assay; assay type: functional, cell-based
MDA-MB-468 = experiment: Antiproliferative activity against human MDA-MB-468 cells measured after 48 hrs by SRB assay; assay type: functional, cell-based
[1] = target: Mitogen-activated protein kinase 10 (Homo sapiens, UniProt P53779); experiment: Inhibition of JNK3 (unknown origin)
Sequence of Mitogen-activated protein kinase 10 (P53779 whole entry): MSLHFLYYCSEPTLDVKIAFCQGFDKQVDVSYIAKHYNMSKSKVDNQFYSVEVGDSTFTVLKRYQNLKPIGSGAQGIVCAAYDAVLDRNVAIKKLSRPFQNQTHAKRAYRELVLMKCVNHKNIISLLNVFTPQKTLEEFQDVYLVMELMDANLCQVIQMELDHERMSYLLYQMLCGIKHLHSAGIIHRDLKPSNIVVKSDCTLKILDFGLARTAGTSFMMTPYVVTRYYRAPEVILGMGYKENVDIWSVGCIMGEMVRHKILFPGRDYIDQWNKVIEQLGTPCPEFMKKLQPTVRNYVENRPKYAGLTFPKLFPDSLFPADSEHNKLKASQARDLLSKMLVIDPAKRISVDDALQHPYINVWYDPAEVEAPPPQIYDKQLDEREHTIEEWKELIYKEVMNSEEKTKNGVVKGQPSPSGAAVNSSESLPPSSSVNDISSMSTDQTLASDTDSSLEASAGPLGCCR

O=C(NCCCNc1cc(-c2cn(-c3ccccc3)nc2-c2cccc(O)c2)ccn1)Nc1cccc(C(F)(F)F)c1
IC50 (CCRF-CEM; 48 h): 1.71 µM
TGI (CCRF-CEM; time 48 hrs): > 33.3 µM
IC50 (HL-60(TB); HL-60, 48 h): 3.42 µM
TGI (HL-60(TB); HL-60, time 48 hrs): 14.5 µM
IC50 (K562; K562, 48 h): 1.26 µM
TGI (K562; K562, time 48 hrs): > 14.5 µM
IC50 (SR; 48 h): 1.65 µM
TGI (SR; time 48 hrs): 12.8 µM
IC50 (A549; A549, 48 h): 3.35 µM
TGI (A549; A549, time 48 hrs): 11.2 µM
IC50 (HOP-62; HOP-62, 48 h): 4.09 µM
TGI (HOP-62; HOP-62, time 48 hrs): 9.59 µM
IC50 (NCI-H226; NCI-H226, 48 h): 4.88 µM
TGI (NCI-H226; NCI-H226, time 48 hrs): 11.5 µM
IC50 (NCI-H23; NCI-H23, 48 h): 4.34 µM
TGI (NCI-H23; NCI-H23, time 48 hrs): 9.34 µM
IC50 (NCI-H322M; 48 h): 4.24 µM
TGI (NCI-H322M; time 48 hrs): 9.32 µM
IC50 (NCI-H460; NCI-H460, 48 h): 3.48 µM
TGI (NCI-H460; NCI-H460, time 48 hrs): 8.89 µM
IC50 (NCI-H522; NCI-H522, 48 h): 5.12 µM
TGI (NCI-H522; NCI-H522, time 48 hrs): 11 µM
IC50 (HCT-116; HCT-116, 48 h): 1.97 µM
TGI (HCT-116; HCT-116, time 48 hrs): 6.33 µM
IC50 (HT-29; HT-29, 48 h): 1.51 µM
TGI (HT-29; HT-29, time 48 hrs): 6.19 µM
IC50 (KM12; KM12, 48 h): 2.63 µM
TGI (KM12; KM12, time 48 hrs): 7.39 µM
IC50 (SW-620; SW-620, 48 h): 3.85 µM
TGI (SW-620; SW-620, time 48 hrs): 8.31 µM
IC50 (SF-268; SF-268, 48 h): 3.26 µM
TGI (SF-268; SF-268, time 48 hrs): 9.69 µM
IC50 (SF-539; SF-539, 48 h): 2.78 µM
TGI (SF-539; SF-539, time 48 hrs): 7.18 µM
IC50 (SNB-75; SNB-75, 48 h): 0.74 µM
TGI (SNB-75; SNB-75, time 48 hrs): 4.1 µM
IC50 (U-251; U-251, 48 h): 2.57 µM
TGI (U-251; U-251, time 48 hrs): 7.45 µM
IC50 (M14; M14, 48 h): 2.18 µM
TGI (M14; M14, time 48 hrs): 6.98 µM
IC50 (SK-MEL-2; SK-MEL-2, 48 h): 5.29 µM
TGI (SK-MEL-2; SK-MEL-2, time 48 hrs): 11.7 µM
IC50 (SK-MEL-28; SK-MEL-28, 48 h): 3.48 µM
TGI (SK-MEL-28; SK-MEL-28, time 48 hrs): 7.51 µM
IC50 (UACC-257; UACC-257, 48 h): 4.8 µM
TGI (UACC-257; UACC-257, time 48 hrs): 10.1 µM
IC50 (UACC-62; UACC-62, 48 h): 4.41 µM
TGI (UACC-62; UACC-62, time 48 hrs): 8.84 µM
IC50 (IGROV-1; IGROV-1, 48 h): 2.83 µM
TGI (IGROV-1; IGROV-1, time 48 hrs): 7.98 µM
IC50 (OVCAR-4; OVCAR-4, 48 h): 2.13 µM
TGI (OVCAR-4; OVCAR-4, time 48 hrs): 7.75 µM
IC50 (NCI/ADR-RES; 48 h): 4.9 µM
TGI (NCI/ADR-RES; time 48 hrs): 12.8 µM
IC50 (786-0; 786-0, 48 h): 1.07 µM
TGI (786-0; 786-0, time 48 hrs): 3.71 µM
IC50 (CAKI-1; CAKI-1, 48 h): 1.9 µM
TGI (CAKI-1; CAKI-1, time 48 hrs): 12.3 µM
IC50 (RXF 393; RXF 393, 48 h): 1.08 µM
TGI (RXF 393; RXF 393, time 48 hrs): 4.96 µM
IC50 (SN12C; 48 h): 3.65 µM
TGI (SN12C; time 48 hrs): 7.91 µM
IC50 (DU-145; DU-145, 48 h): 4.8 µM
TGI (DU-145; DU-145, time 48 hrs): 11.9 µM
IC50 (MCF7; MCF7, 48 h): 2.73 µM
TGI (MCF7; MCF7, time 48 hrs): 9.39 µM
IC50 (MDA-MB-231; MDA-MB-231, 48 h): 2.85 µM
TGI (MDA-MB-231; MDA-MB-231, time 48 hrs): 7.76 µM
IC50 (BT-549; BT-549, 48 h): 3.26 µM
TGI (BT-549; BT-549, time 48 hrs): 7.63 µM
IC50 (T47D; 48 h): 3.42 µM
TGI (T47D; time 48 hrs): 16.7 µM
IC50 (MDA-MB-468; MDA-MB-468, 48 h): 1.61 µM
TGI (MDA-MB-468; MDA-MB-468, time 48 hrs): 6.16 µM
IC50 [1]: 0.474 µM

Reference: ChEMBL document CHEMBL5113453, “Design, synthesis, and biological evaluation of a new series of pyrazole derivatives: Discovery of potent and selective JNK3 kinase inhibitors” (Bioorg Med Chem, 2022)
